Measured values reported in patent publication US20250281462A1, “THERAPEUTICALLY EFFECTIVE ORAL ADMINISTRATION OF A 2 ARYLBENZIMIDAZOLE” (Tranquis Therapeutics, Inc., priority 2021, published 2025).
“And” between values parts separate entries of the source, which are not always exact repeats. Equal values may be shown once. Read-outs that look alike come from different tables or passages of the source.

Assays:
[1] = Plasma concentrations of TQS-168 and TQS-621 after single oral dose 50 mg/kg in mice, three formulations; assay type: in vivo
Protocol: In a second experiment, mice were administered 50 mg/kg TQS-168 by oral gavage. For Group 1, TQS-168 was prepared at a concentration of 5.0 mg/mL in a suspension with […] in PBS. For Group 2, TQS-168 was prepared at a concentration of 5.0 mg/mL as a solution in 10 polyethylene glycol (PEG) 400|30 Kleptose (Roquete)|60% water.
Plasma exposures for Group 1 mice (ng/mL) are presented in Table 2 and for Group 2 mice in Table 3.
C57BL/6 male mice were administered a single dose of TQS-168 at 50 mg/kg using one of three formulations: Group 1-5.0 mg/ml suspension in 0.5% methylcellulose in PBS; Group 2-5.0 mg/ml solution in PEG400 (Fluka) 10%|Kleptose (Roquette) 30%|sterile water 60%; Group 3-5.0 mg/ml suspension in Labrafil M 1944 CS (Gattefosse) 30%|Masine CC (Gattefosse) 5%|Miglyol 812N 10%|sterile water 55%.
Plasma concentrations of TQS-168 and TQS-621 were measured overtime.

[2] = Plasma and brain concentrations after single oral dose 45 mg/kg in mice; assay type: in vivo; details: for Kp: brain, 45 mg/kg, mice, 45 mg/kg p.o.
Protocol: Mice were administered a single oral dose of 45 mg/kg TQS-168. TQS-168 was prepared at a concentration of 5.0 mg/mL as a solution in 10% polyethylene glycol (PEG) 400|130% Kleptose (Roquette) 60% water.
Concentrations in plasma and in brain were measured at various timepoints and various pharmacokinetic parameters were calculated, as shown below in Tables 4 and 5 and in FIGS. 19A and 19B.
TQS-168 was prepared as a 4.5 mg/ml solution in PEG400 10%| Kleptose 30% sterile water 60%. A single oral dose of 45 mg/kg was administered. Concentrations of TQS-621 were measured in plasma and brain over time.

[3] = mice plasma, TQS-168 50 mg/kg p.o., Group 1 (suspension, 0.5% methylcellulose in PBS), individual mouse, 50 mg/kg
[4] = mice plasma, TQS-168 50 mg/kg p.o., Group 2 (solution, PEG400/Kleptose/water), individual mouse, 50 mg/kg
[5] = mice plasma, TQS-168 50 mg/kg p.o., Group 3 (suspension, Labrafil/Masine/Miglyol/water), individual mouse, 50 mg/kg
[6] = mice brain, TQS-168 45 mg/kg p.o., solution PEG 400/Kleptose/water
[7] = mice plasma, TQS-168 45 mg/kg p.o., solution PEG 400/Kleptose/water
[8] = mouse, po, mice brain, TQS-168 45 mg/kg p.o., solution PEG 400/Kleptose/water
[9] = mouse, po, mice plasma, TQS-168 45 mg/kg p.o., solution PEG 400/Kleptose/water

CC(C)(C)c1ccc(-c2nc3ccccc3[nH]2)cc1 [TQS-168, 2-(4-tert-butylphenyl)-1H-benzimidazole]
concentration at 8 h ([1]; male, C57BL/6, mouse, plasma, po, 50 mg/kg, mice, 50 mg/kg p.o., Group 2 (solution, PEG 400/Kleptose/water), 8 hr, mean, read-out: Calculated Concentration in plasma): 427 ng/mL
concentration at 12 h ([1]; male, C57BL/6, mouse, plasma, po, 50 mg/kg, mice, 50 mg/kg p.o., Group 2 (solution, PEG 400/Kleptose/water), 12 hr, individual mouse, read-out: Calculated Concentration in plasma): 185 ng/mL
concentration at 12 h ([1]; male, C57BL/6, mouse, plasma, po, 50 mg/kg, mice, 50 mg/kg p.o., Group 2 (solution, PEG 400/Kleptose/water), 12 hr, mean, read-out: Calculated Concentration in plasma): 161 ng/mL
Cmax ([1]; mice plasma, 50 mg/kg p.o., Group 2 (solution), 50 mg/kg, read-out: Cmax): 7.9 µM
AUCInf [1, 3]: 5085 ng·h/mL and 14196 ng·h/mL and 5052 ng·h/mL
AUClast [1, 3]: 8046 ng·h/mL and 4822 ng·h/mL
Cmax [1, 3]: 1380 ng/mL and 704 ng/mL
t1/2 [1, 3]: 1.74 h and 9.47 h and 1.70 h
AUCInf [1, 4]: 11411 ng·h/mL and 11446 ng·h/mL
AUClast [1, 4]: 11058 ng·h/mL and 10525 ng·h/mL
Cmax [1, 4]: 2390 ng/mL and 2070 ng/mL
t1/2 [1, 4]: 2.22 h and 3.41 h
AUCInf [1, 5]: 4336 ng·h/mL and 3877 ng·h/mL
AUClast [1, 5]: 3924 ng·h/mL and 3753 ng·h/mL
Cmax [1, 5]: 752 ng/mL and 420 ng/mL
Tmax [1, 5]: 8 h
t1/2 [1, 5]: 2.23 h and 1.43 h
Cmax ([1]; mice plasma, TQS-168 50 mg/kg p.o., Group 3 (suspension, Labrafil/Masine/Miglyol/water), mean, 50 mg/kg): 594 ng/mL
Calculated Concentration in plasma ([1]; mice, 50 mg/kg p.o., Group 1 (suspension, methylcellulose in PBS), 0.25 hr, individual mouse, 50 mg/kg): 887 ng/mL and 485 ng/mL
Calculated Concentration in plasma ([1]; mice, 50 mg/kg p.o., Group 1 (suspension, methylcellulose in PBS), 0.5 hr, individual mouse, 50 mg/kg): 848 ng/mL and 1380 ng/mL and 619 ng/mL
Calculated Concentration in plasma ([1]; mice, 50 mg/kg p.o., Group 1 (suspension, methylcellulose in PBS), 1 hr, individual mouse, 50 mg/kg): 1310 ng/mL and 704 ng/mL
Calculated Concentration in plasma ([1]; mice, 50 mg/kg p.o., Group 1 (suspension, methylcellulose in PBS), 2 hr, individual mouse, 50 mg/kg): 839 ng/mL and 1050 ng/mL and 440 ng/mL
Calculated Concentration in plasma ([1]; mice, 50 mg/kg p.o., Group 1 (suspension, methylcellulose in PBS), 4 hr, individual mouse, 50 mg/kg): 479 ng/mL and 391 ng/mL
Calculated Concentration in plasma ([1]; mice, 50 mg/kg p.o., Group 1 (suspension, methylcellulose in PBS), 8 hr, individual mouse, 50 mg/kg): 254 ng/mL and 603 ng/mL and 480 ng/mL
Calculated Concentration in plasma ([1]; mice, 50 mg/kg p.o., Group 1 (suspension, methylcellulose in PBS), 12 hr, individual mouse, 50 mg/kg): 18.0 ng/mL and 450 ng/mL and 93.9 ng/mL
Calculated Concentration in plasma ([1]; mice, 50 mg/kg p.o., Group 1 (suspension, methylcellulose in PBS), 24 hr, individual mouse): BLOQ
Calculated Concentration in plasma ([1]; mice, 50 mg/kg p.o., Group 2 (solution, PEG 400/Kleptose/water), 0.25 hr, individual mouse, 50 mg/kg): 874 ng/mL and 1170 ng/mL
Calculated Concentration in plasma ([1]; mice, 50 mg/kg p.o., Group 2 (solution, PEG 400/Kleptose/water), 0.5 hr, individual mouse, 50 mg/kg): 2070 ng/mL and 1860 ng/mL
Calculated Concentration in plasma ([1]; mice, 50 mg/kg p.o., Group 2 (solution, PEG 400/Kleptose/water), 1 hr, individual mouse, 50 mg/kg): 2390 ng/mL and 2070 ng/mL
Calculated Concentration in plasma ([1]; mice, 50 mg/kg p.o., Group 2 (solution, PEG 400/Kleptose/water), 2 hr, individual mouse, 50 mg/kg): 1830 ng/mL and 1630 ng/mL
Calculated Concentration in plasma ([1]; mice, 50 mg/kg p.o., Group 2 (solution, PEG 400/Kleptose/water), 4 hr, individual mouse, 50 mg/kg): 1330 ng/mL and 949 ng/mL
Calculated Concentration in plasma ([1]; mice, 50 mg/kg p.o., Group 2 (solution, PEG 400/Kleptose/water), 8 hr, individual mouse, 50 mg/kg): 329 ng/mL and 579 ng/mL
Calculated Concentration in plasma ([1]; mice, 50 mg/kg p.o., Group 2 (solution, PEG 400/Kleptose/water), 12 hr, individual mouse, 50 mg/kg): 110 ng/mL and 187 ng/mL
Calculated Concentration in plasma ([1]; mice, 50 mg/kg p.o., Group 2 (solution, PEG 400/Kleptose/water), 24 hr, individual mouse): BLOQ
AUCExtr [2, 6]: 0.308%
AUCInf [2, 6]: 24668 ng·h/g
AUCInf/D [2, 6]: 548 kg·ng·h/g/mg
AUClast ([2]; mice brain, TQS-168 45 mg/kg p.o., solution PEG 400/Kleptose/water, last time point 24 hr): 24592 ng·h/g
AUCExtr [2, 7]: 0.188%
AUCInf/D [2, 7]: 302 kg·ng·h/mL/mg
Kp ([2]; mouse, po, read-out: Brain-to-plasma AUC ratio): 1.81
Kp ([2]; mouse, po, read-out: Brain-to-plasma Cmax ratio): 1.84
Cmax [2, 8]: 4260 ng/g
MRT inf [2, 8]: 3.45 h
Tmax [2, 8]: 1 h
half-life [2, 8]: 3.66 h
AUC(0-inf) [2, 9]: 13600 ng·h/mL
Cmax [2, 9]: 2310 ng/mL
MRT inf [2, 9]: 3.35 h
Tmax [2, 9]: 0.5 h
half-life [2, 9]: 3.26 h
AUC(0-t) ([2]; mouse, po, mice plasma, TQS-168 45 mg/kg p.o., solution PEG 400/Kleptose/water, last time point 24 hr): 13600 ng·h/mL
